Results taken from patent US20250213550A1, “COMPOUNDS AND METHODS FOR TREATING INFLAMMATORY BOWEL DISEASE” (Gilead Sciences, Inc., priority 2023, published 2025).
Like-named read-outs stand apart in the source and are kept apart here.

Test system: LPS-stimulated pERK in monocytes (TPL2 pathway)
Test: Ex vivo LPS-stimulated pERK in monocytes of whole blood after Compound 1 dosing (flow cytometry)
Design: species or system human
Settings: for inhibition at 75 mg: Homo sapiens, Monocyte, 75 mg QD multiple dose, read-out: pERK Signal, % Inhibition
Method: For Cohorts 1-4, whole blood PD sampling occurred relative to the dose of Compound 1 at the following time points: • Day 1: 0 pre-dose (≤5 min prior to dosing), 1, 2, 3, 4, 8, 12, 24 and 36 hours post-dose
For Cohorts 5-9, whole blood PD sampling occurred relative to the dose of Compound 1 at the following time points: • Day 1: 0 pre-dose (≤5 min prior to dosing), 1, 2, 3, 4, 8, 12, and 24 hours post-dose • Day 10: 0 pre-dose (≤5 min prior to dosing), 1, 2, 3, 4, 8, 12, 24, 36, 48, 72, 96, and 120 hours post-dose
Whole blood PD Samples were stimulated ex vivo with lipopolysaccharide (LPS) or phosphate buffered saline (PBS), and the phosphorylation of extracellular signal-related kinase (pERK) was detected in monocytes by flow cytometry.
Pharmacodynamic changes after single and multiple doses of Compound 1 were also investigated by monitoring, in whole blood samples, stimulated with either lipopolysaccharide (LPS) or PBS for 15 minutes at 37° C. Changes to the phosphorylation of extracellular signal-regulated kinases (pERK) was measured in monocytes by flow cytometry, defined as CD15−CD14+.
Pharmacodynamic parameters for Compound 1 were calculated as percent change in pERK signal relative to Day 1 pre-dose (baseline) for all evaluable participants.
Multiple Ascending Doses: Pharmacodynamic parameters after multiple doses of Compound 1 were also calculated as percent change in pERK signal relative to Day 1 pre-dose (baseline) for all evaluable participants.

Cn1ccc2c([C@@H](c3cn(C45CC(C4)C5)nn3)N(C(=O)OCOP(=O)(O)O)c3cc(Cl)c4ncc(C#N)c(NCC(C)(C)C)c4c3)cccc2c1=O [Compound 1]
median percent change in pERK relative to baseline (75 mg QD, Day 10, 12 hours post-last dose): −48.3%
median percent change in pERK relative to baseline (75 mg QD, Day 10, 24 hours post last dose): −39.8%
median change in pERK relative to baseline (75 mg single dose, 3 hours post-dose): −86.8%
median change in pERK relative to baseline (75 mg single dose, 12 hours post-dose): −51.3%
pERK Signal, % Inhibition (75 mg single dose, Day 1 1 hour, mean (SD)): 56.4 (13.04) %
pERK Signal, % Inhibition (75 mg single dose, Day 1 1 hour, median): 62.9%
pERK Signal, % Inhibition (75 mg single dose, Day 1 3 hours, mean (SD)): 82.7 (10.42) %
pERK Signal, % Inhibition (75 mg single dose, Day 1 3 hours, median): 86.8%
pERK Signal, % Inhibition (75 mg single dose, Day 1 12 hours, mean (SD)): 52.2 (6.53) %
pERK Signal, % Inhibition (75 mg single dose, Day 1 12 hours, median): 51.3%
pERK Signal, % Inhibition (75 mg single dose, Day 1 24 hours, mean (SD)): 33.6 (4.73) %
pERK Signal, % Inhibition (75 mg single dose, Day 1 24 hours, median): 33.6%
median percent change in pERK relative to baseline (300 mg QD, Day 10, 12 hours post-last dose): −95.7%
median percent change in pERK relative to baseline (300 mg QD, Day 10, 24 hours post last dose): −91.6%
median change in pERK relative to baseline (300 mg single dose, 3 hours post-dose): −95.6%
median change in pERK relative to baseline (300 mg single dose, 12 hours post-dose): −76.6%
pERK Signal, % Inhibition (300 mg single dose, Day 1 1 hour, mean (SD)): 32.2 (35.11) %
pERK Signal, % Inhibition (300 mg single dose, Day 1 1 hour, median): 29.1%
pERK Signal, % Inhibition (300 mg single dose, Day 1 3 hours, mean (SD)): 93.4 (5.08) %
pERK Signal, % Inhibition (300 mg single dose, Day 1 3 hours, median): 95.6%
pERK Signal, % Inhibition (300 mg single dose, Day 1 12 hours, mean (SD)): 76.0 (7.04) %
pERK Signal, % Inhibition (300 mg single dose, Day 1 12 hours, median): 76.7%
pERK Signal, % Inhibition (300 mg single dose, Day 1 24 hours, mean (SD)): 66.4 (2.19) %
pERK Signal, % Inhibition (300 mg single dose, Day 1 24 hours, median): 65.3%
median percent change in pERK relative to baseline (600 mg BID, Day 10, 12 hours post-last dose): −100.2%
median percent change in pERK relative to baseline (600 mg BID, Day 10, 24 hours post last dose): −101.5%
median percent change in pERK relative to baseline (900 mg QD, Day 10, 12 hours post-last dose): −96.7%
median percent change in pERK relative to baseline (900 mg QD, Day 10, 24 hours post last dose): −98.5%
median change in pERK relative to baseline (900 mg single dose, 3 hours post-dose): −99.9%
median change in pERK relative to baseline (900 mg single dose, 12 hours post-dose): −92.1%
pERK Signal, % Inhibition (900 mg single dose, Day 1 1 hour, mean (SD)): 74.5 (38.94) %
pERK Signal, % Inhibition (900 mg single dose, Day 1 1 hour, median): 97.9%
pERK Signal, % Inhibition (900 mg single dose, Day 1 3 hours, mean (SD)): 99.8 (2.98) %
pERK Signal, % Inhibition (900 mg single dose, Day 1 12 hours, mean (SD)): 92.7 (3.10) %
pERK Signal, % Inhibition (900 mg single dose, Day 1 12 hours, median): 92.1%
pERK Signal, % Inhibition (900 mg single dose, Day 1 24 hours, mean (SD)): 83.6 (7.00) %
pERK Signal, % Inhibition (900 mg single dose, Day 1 24 hours, median): 85.8%
median change in pERK relative to baseline (1500 mg single dose, 3 hours post-dose): −99%
median change in pERK relative to baseline (1500 mg single dose, 12 hours post-dose): −96.3%
pERK Signal, % Inhibition (1500 mg single dose, Day 1 1 hour, mean (SD)): 74.8 (45.62) %
pERK Signal, % Inhibition (1500 mg single dose, Day 1 1 hour, median): 97.3%
pERK Signal, % Inhibition (1500 mg single dose, Day 1 3 hours, mean (SD)): 92.8 (16.61) %
pERK Signal, % Inhibition (1500 mg single dose, Day 1 3 hours, median): 99.0%
pERK Signal, % Inhibition (1500 mg single dose, Day 1 12 hours, mean (SD)): 93.0 (6.35) %
pERK Signal, % Inhibition (1500 mg single dose, Day 1 12 hours, median): 96.3%
pERK Signal, % Inhibition (1500 mg single dose, Day 1 24 hours, mean (SD)): 94.4 (2.50) %
pERK Signal, % Inhibition (1500 mg single dose, Day 1 24 hours, median): 94.2%
time of maximum PD effect (Day 10 of multiple doses, post-last dose): 2 to 4 h
inhibition at 75 mg (Day 1 1 hour, mean (SD)): 47.9%
inhibition at 75 mg (Day 1 1 hour, median): 44.9%
inhibition at 75 mg (Day 1 3 hours, mean (SD)): 67.5%
inhibition at 75 mg (Day 1 3 hours, median): 79.6%
inhibition at 75 mg (Day 1 12 hours, mean (SD)): 26.1%
inhibition at 75 mg (Day 1 12 hours, median): 32.4%
inhibition at 75 mg (Day 10 1 hour, mean (SD)): 62.2%
inhibition at 75 mg (Day 10 1 hour, median): 62.7%
inhibition at 75 mg (Day 10 3 hours, mean (SD)): 85.4%
inhibition at 75 mg (Day 10 3 hours, median): 88.3%
inhibition at 75 mg (Day 10 12 hours, mean (SD)): 43.5%
inhibition at 75 mg (Day 10 12 hours, median): 48.3%
inhibition at 75 mg (Day 10 24 hours, mean (SD)): 12.6%
inhibition at 75 mg (Day 10 24 hours, median): 39.8%
